Values after ≈ are worked out from the molar mass of the structure shown. Like-named read-outs stand apart in the source and are kept apart here. Non-standard residues stand in square brackets, D forms with d. Residues, ends and D or L forms follow the SMILES beside them. Ac6c = NC1(C(=O)O)CCCCC1
Assays:
[1] = test system: C. neoformans KN99α; experiment: Antifungal activity assay (CFU on SAB agar); assay type: cell-based, Cryptococcus neoformans; details: treatment 3 h, 30 °C, mean ± SD, n = 4; for cell count C. neoformans KN99α, 24 h: CFU counted after 24 h; for cell count C. neoformans KN99α, 48 h: CFU counted after 48 h
[2] = test system: HepG2 and HEK293 cell lines; experiment: Cytotoxicity (MTT), for both cell lines; assay type: cell-based, human
Procedure: Human embryonic kidney (HEK293) and human hepatoma (HepG2) cells were cultured in Dulbecco’s modified Eagle’s/Ham’s F-12 medium (DMEM/F-12) containing 10% (v/v) fetal bovine serum and 1% (v/v) penicillin/streptomycin. Cells (20,000 in 200 μL per well) were seeded into a 96-well plate (polystyrene F-bottom, Greiner Bio-One GmbH) and incubated for 24 h (37°C, 5% CO2). Cells were washed with PBS (100 μL) and peptide solutions (0.6 g/L in DMEM/F-12) were added. The positive control was a dilution series from 12 to 1.5% (v/v) DMSO and the negative control was 12% (v/v) PBS. After incubation (37°C, 24 h, 5% CO2), the supernatant was discarded, fresh medium (90 μL/well) and MTT (10 μL/well, 5 g/L in PBS) were added, and the plate was incubated for 4 h (37°C, 5% CO2). A solution (100 μL) of sodium dodecyl sulfate (10% (v/v)) in hydrochloric acid (10 mmol/L) was added and the plate was incubated again for 24 h (37°C, 5% CO2). Absorbance was recorded at 570 nm relative to the reference at 650 nm ([…] ™ microplate reader). All samples were corrected for the background absorbance of the medium. Relative cell viability was calculated as the ratio of absorbances recorded for treated and untreated cells ([Kolano et al., 2021]; [Brakel et al., 2022a],[b]).

[3] = test system: C. neoformans 1841 (serotype D)
[4] = test system: C. neoformans 1841; experiment: Time-kill assay; assay type: cell-based, Cryptococcus neoformans; details: 2.5 μmol/L, 30°C, triplicates
Procedure: The kinetic effects of the antifungal activity were determined by diluting overnight cultures to 5 × 10^4 CFU/mL with 50% SAB in phosphate buffer. Aqueous peptide solutions (20 μL) were added to the cell suspension (80 μL) to give a final peptide concentration of 2.5 μmol/L. Samples were incubated at 30°C on an orbital shaker (750 rpm, Titramax 1,000, Heidolph Instruments GmbH & Co. KG) for 24 h. Before incubation (0 min) and after 45 min, 90 min, 3 h, 6 h, and 24 h incubation, aliquots (10 μL) of samples were taken and diluted with phosphate buffer (10 mmol/L, pH 7.5) to observe countable cell colonies. Aliquots (100 μL) of the diluted cell suspensions were plated on SAB agar plates. Plates were incubated at 30°C and colonies were counted after 24 h.

[5] = test system: C. neoformans H99; experiment: Antifungal activity assay (CFU on SAB agar); assay type: cell-based, Cryptococcus neoformans; details: treatment 3 h, 30 °C, mean ± SD, n = 4; for cell count C. neoformans H99, 24 h: CFU counted after 24 h; for cell count C. neoformans H99, 48 h: CFU counted after 48 h
[6] = test system: C. neoformans strains 1841, H99, and KN99α; experiment: Antifungal activity assay (CFU); assay type: cell-based, Cryptococcus neoformans; details: peptide concentrations ≥2.5 μmol/L, no colonies visible even after 48 h
[7] = test system: C. neoformans strains 1841, H99, and KN99α; experiment: Broth microdilution assay (MIC); assay type: cell-based, Cryptococcus neoformans
[8] = test system: C. neoformans KN99α (serotype A, mating type MATα)
[9] = test system: C. neoformans H99 (serotype A)
[10] = test system: C. neoformans 1841; experiment: Antifungal activity assay (CFU on SAB agar); assay type: cell-based, Cryptococcus neoformans; details: treatment 3 h, 30 °C, mean ± SD, n = 4; for cell count C. neoformans 1841, 24 h: CFU counted after 24 h; for cell count C. neoformans 1841, 48 h: CFU counted after 48 h
[11] = test system: C. neoformans; details: cited from earlier work
Text: Moreover, these drugs have tremendous side effects due to their high toxicity, particularly kidney damage. In general, the dev ...

[12] = test system: in vitro translation; details: ref Seefeldt et al., 2016; cited from earlier work
Procedure: The putative intracellular mode of action is a very significant finding, supported by CLSM images showing fluorescence in the cytoplasmic region after incubation of C. neoformans with Cf-labeled PrAMPs (Figure 4; Supplementary Figure S3). At this point, we can only speculate about potential targets, such as the ribosomes at the endoplasmic reticulum, which is the primary target of PrAMPs in bacteria, i.e., the 70S ribosome ([Krizsan et al., 2014], [2015a],[b]; [Seefeldt et al., 2015]; [Graf et al., 2017]). […] However, ...

[13] = test system: C. neoformans 1841 (serotype D); experiment: microbe, parasite or virus in culture; details: Cryptococcus neoformans
[14] = test system: C. neoformans KN99α (serotype A, mating type MATα); experiment: microbe, parasite or virus in culture; details: Cryptococcus neoformans
[15] = test system: C. neoformans H99 (serotype A); experiment: microbe, parasite or virus in culture; details: Cryptococcus neoformans

Compound	cell count C. neoformans KN99α, 24 h ([1]; 0.25 µmol/L)	cell count C. neoformans KN99α, 48 h ([1]; 0.25 µmol/L)	cell count C. neoformans KN99α, 24 h ([1]; 2.5 µmol/L)	cell count C. neoformans KN99α, 48 h ([1]; 2.5 µmol/L)	cell count C. neoformans KN99α, 24 h ([1]; 25 µmol/L)	cell count C. neoformans KN99α, 48 h ([1]; 25 µmol/L)	cell count C. neoformans H99, 24 h ([5]; 0.25 µmol/L)	cell count C. neoformans H99, 48 h ([5]; 0.25 µmol/L)	cell count C. neoformans H99, 24 h ([5]; 2.5 µmol/L)	cell count C. neoformans H99, 48 h ([5]; 2.5 µmol/L)	cell count C. neoformans H99, 24 h ([5]; 25 µmol/L)	cell count C. neoformans H99, 48 h ([5]; 25 µmol/L)	cell count C. neoformans 1841, 24 h ([10]; 0.25 µmol/L)	cell count C. neoformans 1841, 48 h ([10]; 0.25 µmol/L)	cell count C. neoformans 1841, 24 h ([10]; 2.5 µmol/L)	cell count C. neoformans 1841, 48 h ([10]; 2.5 µmol/L)	cell count C. neoformans 1841, 24 h ([10]; 25 µmol/L)	cell count C. neoformans 1841, 48 h ([10]; 25 µmol/L)	other results
CC(C)C[C@H](NC(=O)[C@H](Cc1ccc(O)cc1)NC(=O)[C@@H]1CCCN1C(=O)[C@H](CCCNC(=N)N)NC(=O)[C@@H]1CCCN1C(=O)[C@H](CCCCN)NC(=O)[C@H](CCCCN)NC(=O)[C@@H]1CCCN1C(=O)[C@H](CCCNC(=N)N)NC(=O)C1(N)CCCCC1)C(=O)N1CCC[C@H]1C(=O)N[C@@H](CCCNC(=N)N)C(=O)N1CCC[C@H]1C(=O)N[C@@H](CCCNC(=N)N)C(=O)N1CCC[C@H]1C(=O)N1CCC[C@H]1C(=O)N[C@@H](CCCNC(=N)N)C(=O)N1CCC[C@H]1C(=O)N[C@H](C(=O)N[C@@H](CCCNC(=N)N)C(N)=O)C(C)C [Chex1Arg20 D4K] (H-[Ac6c]RPKKPRPYLPRPRPPRPVR-NH2; N-terminus assumed)	2.0 ± 1.2 x 10^4 CFU/mL	2.2 ± 1.1 x 10^4 CFU/mL	0.1 ± 0.1 x 10^4 CFU/mL	0.1 ± 0.1 x 10^4 CFU/mL	0.8 ± 1.3 x 10^4 CFU/mL	0.8 ± 1.3 x 10^4 CFU/mL	2.7 ± 0.4 x 10^4 CFU/mL	2.9 ± 0.4 x 10^4 CFU/mL	0.0 ± 0.0 x 10^4 CFU/mL	0.1 ± 0.0 x 10^4 CFU/mL	0.0 ± 0.0 x 10^4 CFU/mL	0.0 ± 0.0 x 10^4 CFU/mL	0.4 ± 0.0 x 10^4 CFU/mL	2.2 ± 0.3 x 10^4 CFU/mL	0.0 ± 0.0 x 10^4 CFU/mL	0.0 ± 0.0 x 10^4 CFU/mL	0.0 ± 0.0 x 10^4 CFU/mL	0.0 ± 0.0 x 10^4 CFU/mL	peptide concentration used in cytotoxicity test relative to MIC (safety margin) [2]: 150 fold; MIC (μmol/L) 1841 24 h ([3]; 1841 (serotype D, 24 h, pH 7.5)): 1.6 µmol/L (≈ 3.98 µg/mL); MIC (μmol/L) 1841 48 h ([3]; 1841 (serotype D, 48 h, pH 7.5)): 1.6 µmol/L (≈ 3.98 µg/mL); incubation time after which no viable cells were detected [4]: 45 min; suppression of fungi, colonies after 48 h [6]: completely suppressed the fungi; MIC ([7]; strains 1841, H99, and KN99α, 24 h): 1.6 µM; MIC (μmol/L) KN99α 24 h ([8]; KN99α (serotype A, mating type MATα, 24 h)): 1.6 µmol/L (≈ 3.98 µg/mL); MIC (μmol/L) KN99α 48 h ([8]; KN99α (serotype A, mating type MATα, 48 h)): 1.6 µmol/L (≈ 3.98 µg/mL); MIC (μmol/L) H99 24 h ([9]; H99 (serotype A, 24 h)): 1.6 µmol/L (≈ 3.98 µg/mL); MIC (μmol/L) H99 48 h ([9]; H99 (serotype A, 48 h)): 1.6 µmol/L (≈ 3.98 µg/mL)
Bac7 (1-35): mammalian PrAMP fragment, literature (RRIRPRPPRLPRPRPRPLPFPRPGPRPIPRPLPFP; Bactenecin 7; UniProt P19661 131-165, looked up, fragment)	–	–	–	–	–	–	–	–	–	–	–	–	–	–	–	–	–	–	MIC against C. neoformans ([11]; ref Benincasa et al., 2004, Conti et al., 2013): ≥ 4 µM; IC50 in eukaryotic in vitro translation system relative to the E. coli system [12]: 2.5 fold
C[C@@H]1[C@H](O)[C@@H](C)/C=C/C=C/C=C/C=C/C=C/C=C/C=C/[C@H](O[C@@H]2O[C@H](C)[C@@H](O)[C@H](N)[C@@H]2O)C[C@@H]2O[C@](O)(C[C@@H](O)C[C@@H](O)[C@H](O)CC[C@@H](O)C[C@@H](O)CC(=O)O[C@H]1C)C[C@H](O)[C@H]2C(=O)O [Amphotericin B, reference compound]	2.4 ± 1.5 x 10^4 CFU/mL	2.5 ± 1.7 x 10^4 CFU/mL	0.1 ± 0.1 x 10^4 CFU/mL	0.1 ± 0.1 x 10^4 CFU/mL	0.0 ± 0.0 x 10^4 CFU/mL	0.0 ± 0.0 x 10^4 CFU/mL	0.9 ± 0.7 x 10^4 CFU/mL	1.1 ± 0.7 x 10^4 CFU/mL	0.0 ± 0.0 x 10^4 CFU/mL	0.0 ± 0.0 x 10^4 CFU/mL	0.0 ± 0.0 x 10^4 CFU/mL	0.0 ± 0.0 x 10^4 CFU/mL	1.4 ± 0.3 x 10^4 CFU/mL	1.4 ± 0.3 x 10^4 CFU/mL	0.0 ± 0.0 x 10^4 CFU/mL	0.0 ± 0.0 x 10^4 CFU/mL	0.0 ± 0.0 x 10^4 CFU/mL	0.0 ± 0.0 x 10^4 CFU/mL	cytotoxicity ([2]; 125 mg/L, 24 h): strong cytotoxicity; MIC ([13]; 24 h, pH 7.5, read-out: MIC (μmol/L) 1841 24 h): 0.06 to 0.23 µmol/L; MIC ([13]; 24 h, read-out: MIC (mg/L) 1841 24 h): 0.06 to 0.12 mg/L; MIC ([13]; 48 h, pH 7.5, read-out: MIC (μmol/L) 1841 48 h): 0.13 µmol/L; MIC ([13]; 48 h, read-out: MIC (mg/L) 1841 48 h): 0.12 mg/L; MIC [7]: < 0.2 µg/mL; MIC ([7]; Cryptococcus neoformans, read-out: MIC): < 0.22 µM; MIC ([14]; 24 h, read-out: MIC (mg/L) KN99α 24 h): 0.08 mg/L; MIC ([14]; 24 h, read-out: MIC (μmol/L) KN99α 24 h): 0.09 µmol/L; MIC ([14]; 48 h, read-out: MIC (mg/L) KN99α 48 h): 0.16 mg/L; MIC ([14]; 48 h, read-out: MIC (μmol/L) KN99α 48 h): 0.17 µmol/L; MIC ([15]; 24 h, read-out: MIC (mg/L) H99 24 h): < 0.02 mg/L; MIC ([15]; 24 h, read-out: MIC (μmol/L) H99 24 h): < 0.02 µmol/L; MIC ([15]; 48 h, read-out: MIC (mg/L) H99 48 h): 0.04 to 0.08 mg/L; MIC ([15]; 48 h, read-out: MIC (μmol/L) H99 48 h): 0.04 to 0.09 µmol/L
N=C(N)NCCCCC(=O)Nc1cc(C(F)(F)F)cc(NC(=O)c2cc(C(=O)Nc3cc(C(F)(F)F)cc(NC(=O)CCCCNC(=N)N)c3O[C@@H]3CCNC3)ncn2)c1O[C@@H]1CCNC1 [brilacidin]	–	–	–	–	–	–	–	–	–	–	–	–	–	–	–	–	–	–	MIC against C. neoformans ([11]; ref Dos Reis et al., 2023): 2.5 µM (≈ 2.34 µg/mL)

From publication PMC10800876, “Evaluation of proline-rich antimicrobial peptides as potential lead structures for novel antimycotics against Cryptococcus neoformans” (Frontiers in Microbiology, 2024)
